The values that follow are results of earlier work, collected in publication PMC2912417 (Biochemistry, 2010).

The conditions of data set [1]: peptide alone.

Like-named read-outs stand apart in the source and are kept apart here.

On to LMVGGVV [Aβ(34–40)], for which the “Inhibition of Aβ42-induced toxicity” value in the data set with Aβ42-induced toxicity (cell-viability screen under similar conditions) was “inactive”.

On to IGLMVGGVVIA [Aβ(32–42)], for which, in the data set with Aβ42-induced toxicity, the “Toxicity of the peptide itself” value was “slightly toxic itself”. Moreover, the “Aggregation / fibril formation of the peptide itself” value in data set [1] was “predominantly amorphous, rather than fibrillar, aggregates”.

As for KGAIIGLMVGGVVIA [Aβ(28–42)], in the data set on Aβ42-induced toxicity (cell-viability screen), the “Toxicity of the peptide itself” value was “highly toxic itself”.
